Here are results for 42 compounds from ChEMBL document CHEMBL4418497, “Compositions and methods relating to inhibiting serine hyrdoxymethyltransferase 2 activity” (2016).

Test [1] addresses T1, Serine hydroxymethyltransferase, mitochondrial (Homo sapiens) (UniProt P34897).
T1 sequence (whole entry): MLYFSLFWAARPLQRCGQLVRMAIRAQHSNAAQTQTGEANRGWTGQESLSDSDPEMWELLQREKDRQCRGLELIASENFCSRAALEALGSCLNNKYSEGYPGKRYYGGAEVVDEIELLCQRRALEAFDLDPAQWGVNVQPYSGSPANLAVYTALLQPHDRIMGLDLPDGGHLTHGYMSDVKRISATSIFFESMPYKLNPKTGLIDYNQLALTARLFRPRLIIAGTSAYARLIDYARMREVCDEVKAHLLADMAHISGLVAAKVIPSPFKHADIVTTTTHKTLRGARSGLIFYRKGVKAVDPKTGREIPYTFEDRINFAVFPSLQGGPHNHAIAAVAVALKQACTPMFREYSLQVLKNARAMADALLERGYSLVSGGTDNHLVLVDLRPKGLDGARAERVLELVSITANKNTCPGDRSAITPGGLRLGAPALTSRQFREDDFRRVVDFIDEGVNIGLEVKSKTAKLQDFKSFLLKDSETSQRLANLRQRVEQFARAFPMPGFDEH
Kind of test: Inhibition of His-tagged human recombinant SHMT2 expressed in Escherichia coli BLR(DE3) assessed as reduction in NADPH level using L-serine, THF and NADP+ at 6.5 or 26.5 uM incubated for 5 mins by SHMT2-MTHFD coupled reaction based fluorescence assay relative to control.

In test [2] the target is T2, Serine hydroxymethyltransferase, mitochondrial (Homo sapiens, UniProt P34897).
T2 sequence (P34897 whole entry): T1 sequence (whole entry)
Kind of test: Inhibition of His-tagged human recombinant SHMT2 expressed in Escherichia coli BLR(DE3) assessed as reduction in NADPH level using L-serine, THF and NADP+ incubated for 5 mins by SHMT2-MTHFD coupled reaction based fluorescence assay. The note with it: read-out: pIC50 (converted).

The inhibition is the percentage by which the read-out fell short of the control. `Cc1cccc(CCN2CCC(C(=O)c3ccc(NS(C)(=O)=O)cc3)CC2)n1`: the inhibition in test [1] is 54.9%.
Take `CCNc1cc(N)[n+](CC)c2[nH]nc(/N=C/c3cc(Cl)cc(Cl)c3O)c12`: in test [1], the inhibition turned out to be 97%.
Consider `COc1cc(NC(C)CCCN)c2ncccc2c1` (stereo not drawn) [PRIMAQUINE], for which the inhibition in test [1] is 91.9%. Besides, the IC50 in test [2] is 0.437 µM.
Take `Oc1ccc2[nH]cc(C3=CCNCC3)c2n1`: in test [1], the inhibition came to 73.2%.
Still for that read-out and setting: next, `CN1CC[C@@]2(C)c3cc(OC(=O)Nc4ccccc4)ccc3N(C)[C@@H]12`: 56.6%.
For the compound `CN(C)c1cc2c(Nc3ccc4c(cnn4Cc4ccccc4)c3)ncnc2cn1` [GW282974X], in test [1], the inhibition was 77.5%. For the same compound, the IC50 in test [2] is 2.45 µM.
As to `COC(=O)/C=C(/Nc1cc(OC)ccc1OC)C(=O)OC`, in test [1], the inhibition was determined as 56.3%.
As for `COC(=O)[C@@H]1OC(=O)C2OC23[C@]2(C)[C@H](O)CC4C(C)(C)[C@H](OC(C)=O)C[C@H](OC(C)=O)[C@]4(C)[C@H]2CC[C@@]13C` (stereo partly drawn), the inhibition in test [1] worked out at 81.8%.
As for `Nc1cc(-c2ccncc2)c[nH]c1=O`, the inhibition in test [1] worked out at 92.3%.
On to `CN(C)N1C(=O)c2cccc3c(Br)ccc(c23)C1=O`, for which the inhibition in test [1] amounted to 69.8%.
The same measure, in the same setting: then `CC(C)(C)C(=O)C(C#N)CNc1cccc2nsnc12` (stereo not drawn), with 69.6%; and `C=C(C)[C@H]1CC=C(C(=O)O)CC1`, with 70%.
Consider `CS(=O)(=O)c1ccc2ccn(O)c2c1`, for which the inhibition in test [1] was found to be 60.3%.
Same read-out and setting: then `Nc1nc(=O)c2nc(CNc3ccc(C(=O)N[C@@H](CCC(=O)O)C(=O)O)cc3)cnc2[nH]1`, with 53.6%.
Same read-out and setting: then `O=C(Nc1cccc2c(=O)cc(-c3nnn[nH]3)oc12)c1ccc(OCCCCc2ccccc2)cc1`, with 65.5%; and `Brc1c(NC2=NCCN2)ccc2nccnc12`, with 79%; and `CN1CCN(CCCN2c3ccccc3SC3C=CC(Cl)=CC32)CC1` (stereo not drawn), with 61.6%.
As to `COc1ccc2cc1Oc1ccc(cc1)C[C@H]1c3c(cc4c(c3Oc3cc5c(cc3OC)CCN(C)[C@@H]5C2)OCO4)CCN1C`, the inhibition in test [1] was 70.4%.
Take `CNC(=O)Oc1ccc2c(c1)[C@]1(C)CCN(C)[C@@H]1N2`: in test [1], the inhibition came out at 55.9%.
With `COc1ccc(Cc2nccc3cc(OC)c(OC)cc23)cc1OC` [PAPAVERINE], in test [1], the inhibition was 59.2%. For the same compound, in test [2], the IC50 is 2.69 µM.
In the case of `CCOC(=O)[C@H](CCc1ccccc1)N[C@H](C)C(=O)N1C2CCCCC2C[C@H]1CO` (stereo partly drawn), in test [1], the inhibition came to 53%.
Take `CC(C)C[C@H](N(C)C)C1(c2ccc(Cl)cc2)CCC1`: the inhibition in test [1] was determined as 62%.
For the compound `NC(=O)NC1NC(=O)NC1=O` (stereo not drawn), the inhibition in test [1] came to 58.2%.
The same measure, in the same setting: next, `CC(=O)[C@H]1CC[C@H]2[C@@H]3CCC4C[C@H](O)CC[C@]4(C)[C@H]3C[C@H](O)[C@]12C` (stereo partly drawn): 71.6%; `Cc1cccc(C)c1NC(=O)[C@@H]1CCCCN1C`: 60.1%.
Turning to `Cc1[nH]c2ccc(O)cc2c1CCN`, in test [1], the inhibition was 59%.
In the case of `COC(=O)[C@@H]1C(O)CC[C@H]2CN3CCc4c([nH]c5ccccc45)[C@@H]3C[C@@H]21` (stereo partly drawn), in test [1], the inhibition stood at 73.9%.
On the same count and under the same terms, next, `CC(C(=O)Nc1cccc(/N=C/c2c(O)ccc3ccccc23)c1)c1ccccc1` (stereo not drawn): 60.1%; `CC(=O)N[C@H]1CN2CC[C@H](O)[C@@H]2[C@@H](O)[C@@H]1O`: 63.8%.
As to `Cc1cc(/C=C/c2ccc3cc(N(C)C)ccc3[n+]2C)c(C)n1-c1ccccc1`, the inhibition in test [1] is 88.2%. In addition, the IC50 in test [2] is 2.57 µM.
For the compound `COc1ccc2c(c1O)-c1c(OC)c(OC)cc3c1C(C2)N(C)CC3` (stereo not drawn), the inhibition in test [1] was determined as 69.3%.
For the compound `COc1cc(OC)c2c(c1Cl)OC1(C2=O)C(O)=CC(=O)CC1C` (stereo not drawn), the inhibition in test [1] was 77.8%.
For `CCOC(=O)Nc1ccc(NCc2ccc(F)cc2)nc1N` [FLUPIRTINE], the inhibition in test [1] was found to be 86.1%. Moreover, the IC50 in test [2] was 0.933 µM.
Consider `COc1cc2c(CCNC(C)=O)c[nH]c2cc1O`, for which the inhibition in test [1] is 92.7%.
Same read-out and setting: then `COC(=O)CC1C(C)(C)C(OC(C)=O)[C@@H]2[C@@H](OC(C)=O)[C@]34O[C@@H]2[C@]1(C)C3CC[C@]1(C)C4=CC(=O)O[C@H]1c1ccoc1` (stereo partly drawn), with 52.4%.
Consider `CC(=O)C1CC[C@H]2C3CC[C@H]4C[C@H](O)CC[C@]4(C)C3CC[C@]12C` (stereo partly drawn), for which the inhibition in test [1] came out at 65.9%.
On the same count and under the same terms, then `CCC(N)C(O)c1ccc(O)c(O)c1` (stereo not drawn), with 87%.
Take `CNCC[C@H](Oc1cccc2ccccc12)c1cccs1` [DULOXETINE]: the inhibition in test [1] worked out at 83.8%. Also, the IC50 in test [2] was 6.92 µM.
With `Cc1onc(-c2c(Cl)cccc2Cl)c1NC(=O)Nc1ccc(N(C)C)c(Cl)c1C#N`, the inhibition in test [1] was 97.1%.
For `COC(=O)[C@@H](c1ccc2sccc2c1)c1ccccc1Cl`, in test [1], the inhibition was 53.3%.
Take `N#Cc1ccc(S(=O)(=O)Cc2cccc3ccccc23)cc1`: the inhibition in test [1] was determined as 54.5%.
As to `Cc1nc2c(OCc3ccccc3)cccn2c1CC#N`, the inhibition in test [1] worked out at 77.9%.
